Usually IC90 stands for the point of the concentration-response curve where the effect stands at 90%. Low values mean an effect from little substance, high ones a need for much substance.

Here are results for 22 compounds from article PMC9435431, “Novel chemical entities inhibiting Mycobacterium tuberculosis growth identified by phenotypic high-throughput screening” (Scientific Reports, 2022).

The subject of assay [1] is M. tuberculosis MmpL3 F255L mutant strain. The assay is classed as cell-based, Mycobacterium tuberculosis.
The test system of assay [2] is M. tuberculosis MmpL3 Y252S mutant strain. The assay is classed as cell-based, Mycobacterium tuberculosis.
Assay [3] deals with M. tuberculosis MmpL3 G253E mutant strain. Format: cell-based, Mycobacterium tuberculosis.
The subject of assay [4] is M. tuberculosis MmpL3 Y252C mutant strain. Format: cell-based, Mycobacterium tuberculosis.
For another assay, the system named is M. tuberculosis. Format: cell-based.
For assay [5], the system named is M. tuberculosis QcrB A396T mutant strain. The assay is classed as cell-based, Mycobacterium tuberculosis.

Take `CNc1cc(-c2ccccn2)nc(-c2ccccn2)n1` [APDP-1]: in assay [1], the Fold change was 0.9 and the 90% effect level (IC90) was put at 9.2 µM.

Regarding `Cc1nc(-c2ccccn2)nc(NCCNc2ccc(C(F)(F)F)cn2)c1Cl` [APDP-2], in assay [1], the Fold change is on record as 0.5 and the IC90 worked out at 15 µM.

As for `Cc1nc(-c2ccccn2)nc(NCc2ccccc2)c1Cl` [APDP-3], in assay [1], the Fold change turned out to be 3.5 and it took 22 µM to reach the 90% level (IC90).

In assay [1], `O=C(Nc1nc2ccccc2s1)NC1C2CC3CC(C2)CC1C3` (stereo not shown) [HBU-1] had a Fold change of 1.4 and an IC90 of 6 µM.

In assay [1], `CC1C(CNC(=O)Nc2ccccc2)CC2CC1C2(C)C` (stereo not shown) [HBU-2] showed a Fold change of 8.0 and an IC90 of 39 µM.

With `CC(=O)c1ccc(NC(=O)NC(C)C23CC4CC(CC(C4)C2)C3)cc1` (stereo not shown) [HBU-3], in assay [1], the Fold change is given as 2.4 and the IC90 came to 71 µM.

`O=C(NCCc1ccc(Br)cc1)NC12CC3CC(CC(C3)C1)C2` [HBU-4]: in assay [1], the Fold change is recorded as greater than 8.3 and the IC90 is greater than 100 µM.

As for `CC(NC(=O)Nc1nc(-c2ccc(Cl)cc2)cs1)C1CC2C=CC1C2` (stereo not shown) [HBU-5], in assay [1], the Fold change turned out to be 0.5 and the IC90 was found to be 6.9 µM.

For `CCC1(N2CCC(c3ccccc3)CC2)CCCCC1` [Molecule 4PP-1, 1-(1-Ethyl-cyclohexyl)-4-phenyl-piperidine], in assay [1], the Fold change is on record as 11, the IC90 was determined as 68 µM and the “MmpL3 F255L MIC” value turned out to be 68 µM. Besides, the “MmpL3 Y252S MIC” value in assay [2] is 93 µM. For the same compound, the “MmpL3 G253E MIC” value in assay [3] came out at 91 µM. Besides, the “MmpL3 Y252C MIC” value in assay [4] was 30 µM.

In the case of `O=C(O)C(F)(F)F.c1ccc2c(C3CCN(CC4CCCCC4)CC3)cccc2c1` [Molecule 4PP-31, 1-(Cyclohexylmethyl)-4-(1-naphthyl)piperidine; 2,2,2-trifluoroacetic acid], in assay [1], the Fold change is 15 and the 90% effect level (IC90) was put at 45 µM.

Take `O=C(O)C(F)(F)F.c1cc(C2CCN(CC3CCCCC3)CC2)ccn1` [Molecule 4PP-32, 4-[1-(Cyclohexylmethyl)-4-piperidyl]pyridine, 2,2,2-trifluoroacetic acid salt]: the frequency of resistance in the assay on M. tuberculosis is recorded as 7.35 × 10^−8.

Consider `CC(C)(C)CC(C)(C)N1CCC(c2ccccc2)CC1` [Molecule 4PP-44, 4-Phenyl-1-(1,1,3,3-tetramethyl-butyl)-piperidine], for which, in assay [1], the Fold change was 3.5 and the concentration for an effect of 90% (IC90) worked out at 18 µM.

Regarding `O=C(NCCc1cccc(Br)c1)C1(c2cccc(Cl)c2)CCC1` [PCB-16, N-(3-bromophenethyl)-1-(3-chlorophenyl)cyclobutane-1-carboxamide], the “MmpL3 F255L MIC” value in assay [1] is listed as 8.0 µM. In addition, the “MmpL3 Y252S MIC” value in assay [2] was determined as 50 µM. The “MmpL3 G253E MIC” value in assay [3] came out at 75 µM. Also, in assay [4], the “MmpL3 Y252C MIC” value is reported as 43 µM.

For `O=C(NCCc1cccc(Br)c1)C1(c2ccccc2Cl)CCC1` [PCB-17, N-(3-bromophenethyl)-1-(2-chlorophenyl)cyclobutane-1-carboxamide], the “MmpL3 F255L MIC” value in assay [1] was found to be 9.0 µM. For the same compound, the “MmpL3 Y252S MIC” value in assay [2] is on record as 87 µM. In addition, the “MmpL3 G253E MIC” value in assay [3] is 28 µM. In addition, the “MmpL3 Y252C MIC” value in assay [4] is recorded as 94 µM.

As to `O=C(NCCc1cccc(Br)c1)C1(c2ccc(F)cc2)CCC1` [PCB-19, N-(3-bromophenethyl)-1-(4-fluorophenyl)cyclobutane-1-carboxamide], in assay [1], the “MmpL3 F255L MIC” value turned out to be 3 µM. The “MmpL3 Y252S MIC” value in assay [2] is listed as 35 µM. The “MmpL3 G253E MIC” value in assay [3] is on record as 20 µM. Also, the “MmpL3 Y252C MIC” value in assay [4] is recorded as 45 µM. Also, the frequency of resistance in the assay on M. tuberculosis is listed as 7.0 × 10^−8.

For `O=C(NCCc1cccc(Br)c1)C1(c2ccccc2Br)CCC1` [PCB-21, N-(3-bromophenethyl)-1-(2-bromophenyl)cyclobutane-1-carboxamide], in assay [1], the “MmpL3 F255L MIC” value worked out at 22 µM. In addition, the “MmpL3 Y252S MIC” value in assay [2] is greater than 100 µM. Further, the “MmpL3 G253E MIC” value in assay [3] came out at 41 µM. In addition, the “MmpL3 Y252C MIC” value in assay [4] stood at 96 µM. For the same compound, the frequency of resistance in the assay on M. tuberculosis is given as 5.26 × 10^−8.

In the case of `Cc1ccccc1C1(C(=O)NCCc2cccc(Br)c2)CCC1` [PCB-23, N-(3-bromophenethyl)-1-(o-tolyl)cyclobutane-1-carboxamide], the “MmpL3 F255L MIC” value in assay [1] turned out to be 8.0 µM. The “MmpL3 Y252S MIC” value in assay [2] was found to be 82 µM. For the same compound, the “MmpL3 G253E MIC” value in assay [3] turned out to be 27 µM. Also, the “MmpL3 Y252C MIC” value in assay [4] was determined as 83 µM.

For `Cc1ccc(-c2nnc(C)c(N3CCCC3)n2)cc1` [PYT], in assay [5], the Fold-change was determined as 5.8, it took 62 µM to reach the 90% level (IC90) and the “activity against the QcrB mutant strain (in words)” value is given as “≥ threefold lower activity”.

In the case of `COc1ccc(-c2cc(N)nc(-n3nc(C)cc3C)n2)cc1` [PZP-1], in assay [1], the Fold change was greater than 19 and the IC90 was greater than 100 µM.

Turning to `Cc1cc(C)n(-c2nc(N)cc(-c3cccc(F)c3)n2)n1` [PZP-2], in assay [1], the Fold change was greater than 13 and the IC90 is greater than 100 µM.

On to `Cc1cc(NC2CCCCC2)nc(-n2nc(C)cc2C)n1` [PZP-3], for which, in assay [1], the Fold change stood at 10 and it took 46 µM to reach the 90% level (IC90).

For `CC(=O)n1nccc1-c1sc(-c2cccs2)nc1C` [TPT], in assay [5], the Fold-change is on record as 8.9, the IC90 stood at 63 µM and the “activity against the QcrB mutant strain (in words)” value is “≥ threefold lower activity”.
